Tests used:
Test in all cases: relative viability (nuclei count vs DMSO), 5 days (fraction); higher = more cells survive
RU-SKI 43 + Phenformin = compound: CC[C@@H](C)CNCC(=O)N1CCC2=C([C@@H]1COC3=CC=CC(=C3)C)C=CS2 [RU-SKI 43] + N=C(N)NC(=N)NCCc1ccccc1 [Phenformin] (partner 250 µM)
How it was run: (§1)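 Cells from lung cancer lines were seeded into 1536-well plates and, one day later, dosed by pin tool. Treatments were either a single drug or a fixed dose of an anchor drug with five library-drug doses (not always all listed) in √10 steps. After 5 days, nuclei were stained in a one-step fixation (final 0.05% Triton X-100, 1% formaldehyde, 1 ug/ml Hoechst) and counted on 4× images, and relative viability is the treated-to-vehicle nuclei ratio, as the median of duplicate plates.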

Irinotecan + Luminespib = compound: CCc1c2c(nc3ccc(OC(=O)N4CCC(N5CCCCC5)CC4)cc13)-c1cc3c(c(=O)n1C2)COC(=O)[C@]3(O)CC [Irinotecan] + CCNC(=O)c1noc(-c2cc(C(C)C)c(O)cc2O)c1-c1ccc(CN2CCOCC2)cc1 [Luminespib] (partner 0.01 µM)
How it was run: as §1

Irinotecan + Crizotinib = compound: CCc1c2c(nc3ccc(OC(=O)N4CCC(N5CCCCC5)CC4)cc13)-c1cc3c(c(=O)n1C2)COC(=O)[C@]3(O)CC [Irinotecan] + C[C@@H](Oc1cc(-c2cnn(C3CCNCC3)c2)cnc1N)c1c(Cl)ccc(F)c1Cl [Crizotinib] (partner 1 µM)
How it was run: as §1

MK-8033 + Lapatinib = compound: Cn1cc(-c2cnc3ccc4ccc(CS(=O)(=O)NCc5ccccn5)cc4c(=O)c3c2)cn1 [MK-8033] + CS(=O)(=O)CCNCc1ccc(-c2ccc3ncnc(Nc4ccc(OCc5cccc(F)c5)c(Cl)c4)c3c2)o1 [Lapatinib] (partner 2 µM)
How it was run: as §1

Cell Line | relative viability (RU-SKI 43 + Phenformin; first compound 0.1 µM) | relative viability (RU-SKI 43 + Phenformin; first compound 0.3162 µM) | relative viability (RU-SKI 43 + Phenformin; first compound 1 µM) | relative viability (RU-SKI 43 + Phenformin; first compound 3.162 µM) | relative viability (RU-SKI 43 + Phenformin; first compound 10 µM) | relative viability (Irinotecan + Luminespib; first compound 2 µM) | relative viability (Irinotecan + Luminespib; first compound 6.325 µM) | relative viability (Irinotecan + Luminespib; first compound 20 µM) | relative viability (Irinotecan + Crizotinib; first compound 2 µM) | relative viability (Irinotecan + Crizotinib; first compound 6.325 µM) | relative viability (Irinotecan + Crizotinib; first compound 20 µM) | relative viability (MK-8033 + Lapatinib; first compound 0.02 µM) | relative viability (MK-8033 + Lapatinib; first compound 0.06325 µM) | relative viability (MK-8033 + Lapatinib; first compound 0.2 µM) | relative viability (MK-8033 + Lapatinib; first compound 0.6325 µM) | relative viability (MK-8033 + Lapatinib; first compound 2 µM) | relative viability (Irinotecan + Crizotinib; first compound 0.6325 µM) | relative viability (Irinotecan + Luminespib; first compound 0.6325 µM)
201T | 0.48 | 0.437 | 0.464 | 0.443 | 0.442 | 0.547 | 0.313 | 0.342 | 0.888 | 0.52 | 0.388 | 1.03 | 0.906 | 0.995 | 1.07 | 1.07 |  | 
A549 | 0.186 | 0.16 | 0.156 | 0.113 | 0.143 |  |  |  | 0.511 | 0.143 | 0.0565 | 0.911 | 0.954 | 0.967 | 0.946 | 1.02 | 0.621 | 
A-427 | 0.335 | 0.308 | 0.44 | 0.29 | 0.305 | 0.574 | 0.306 | 0.166 | 0.243 | 0.179 | 0.214 | 1.05 | 1.1 | 0.947 | 1.1 | 1.08 |  | 
ABC-1 | 0.189 | 0.239 | 0.227 | 0.255 | 0.213 | 0.528 | 0.352 | 0.269 | 0.785 | 0.297 | 0.154 | 1.19 | 1.35 | 0.955 | 1.1 | 1.43 |  | 
BEN | 0.26 | 0.283 | 0.238 | 0.262 | 0.267 | 0.374 | 0.176 | 0.294 | 0.52 | 0.252 | 0.391 | 0.695 | 0.679 | 0.649 | 0.738 | 0.75 | 0.928 | 0.231
CAL-12T | 0.645 | 0.65 | 0.616 | 0.596 | 0.589 | 0.695 | 0.2 | 0.253 | 0.766 | 0.374 | 0.326 | 0.604 | 0.566 | 0.601 | 0.868 | 0.591 | 0.728 | 
COR-L23 | 0.426 | 0.544 | 0.46 | 0.553 | 0.421 | 0.36 | 0.223 | 0.165 | 0.289 | 0.204 | 0.1 | 1.17 | 0.997 | 0.7 | 0.941 | 0.901 | 0.293 | 0.235
COR-L 105 | 0.486 | 0.519 | 0.555 | 0.439 | 0.515 | 0.677 | 0.421 | 0.411 | 0.866 | 0.524 | 0.376 | 0.286 | 0.354 | 0.32 | 0.361 | 0.346 | 0.922 | 0.578
Calu-6 |  |  |  |  |  |  |  |  | 0.525 | 0.226 | 0.114 | 1.06 | 1.03 | 0.971 | 1.15 | 1.19 | 0.548 | 
ChaGo-K-1 | 0.474 | 0.491 | 0.548 | 0.479 | 0.488 | 0.332 | 0.23 | 0.282 | 0.849 | 0.47 | 0.402 |  |  |  |  |  |  | 0.309
EBC-1 |  |  |  |  |  |  |  |  | 0.165 | 0.203 | 0.151 | 0.182 | 0.218 | 0.217 | 0.21 | 0.203 | 0.191 | 
EKVX | 0.221 | 0.197 | 0.261 | 0.235 | 0.193 | 0.667 | 0.379 | 0.154 | 0.81 | 0.244 | 0.232 | 0.193 | 0.195 | 0.216 | 0.207 | 0.255 | 1.08 | 0.81
EMC-BAC-2 | 0.535 | 0.429 | 0.551 | 0.482 | 0.507 | 0.407 | 0.347 | 0.375 | 0.291 | 0.216 | 0.19 | 0.954 | 0.792 | 0.859 | 0.959 | 0.876 | 0.332 | 0.681
EPLC-272H | 0.294 | 0.242 | 0.323 | 0.213 | 0.266 | 0.368 | 0.287 | 0.281 | 0.163 | 0.2 | 0.264 | 0.905 |  | 0.914 | 1.05 | 0.903 | 0.504 | 0.203
H3255 | 0.395 | 0.348 | 0.26 | 0.316 | 0.322 | 0.707 | 0.385 | 0.448 | 0.539 | 0.383 | 0.251 | 0.24 | 0.233 | 0.232 | 0.261 | 0.226 | 0.741 | 0.435
HARA | 0.531 | 0.471 | 0.491 | 0.457 | 0.408 | 0.29 | 0.147 | 0.111 | 0.204 | 0.208 | 0.161 | 0.594 | 0.632 | 0.763 | 0.69 | 0.828 | 0.705 | 0.0995
HCC-15 | 0.49 | 0.53 | 0.55 | 0.511 | 0.521 | 0.234 | 0.121 | 0.126 | 0.319 | 0.158 | 0.18 | 0.849 | 0.801 | 0.785 | 0.805 | 0.856 | 0.479 | 
HCC-44 | 0.247 | 0.261 | 0.409 | 0.18 | 0.277 | 0.456 | 0.215 | 0.225 | 0.491 | 0.27 | 0.273 | 1.02 | 1.02 | 0.943 | 0.999 | 1 | 0.578 | 
HCC-78 | 0.735 | 0.735 | 0.933 | 0.739 | 0.692 |  |  |  | 0.312 | 0.222 | 0.181 | 0.765 | 0.811 | 0.65 |  | 0.94 | 0.353 | 
HCC-366 | 0.616 | 0.676 | 0.652 | 0.582 | 0.453 |  |  |  | 0.132 | 0.0524 | 0.0502 | 1.04 | 0.994 | 0.972 | 1.05 | 1.05 | 0.274 | 

— the supplement of paper PMC10307832
